# In PubChem BioAssay AID493102 (Broad Institute, 2011):
# System: SK-MEL-5 TRPM1-promoter luciferase reporter, 24 h
# Assay: reducers of TRPM1 reporter luminescence, concentration series – cell-based, SK-MEL-5, cherry-picked, set 4, MITF inhibitor project, dose response (AID 493102);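 further: actives lower the luciferase signal so the potency reflects inhibition of reporter expression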
row,SMILES,AC50
1,O=C(Cn1ncc(Cl)c(Cl)c1=O)N1CCOCC1,9.82 µM
2,CN(C)S(=O)(=O)c1ccc(-c2csc(N/N=C/c3ccco3)n2)cc1,3.9 µM
3,C=CCN1C(=O)NC(=O)/C(=C/C=C/c2ccccc2)C1=O,5.94 µM
4,Cn1nc([N+](=O)[O-])nc1S(C)(=O)=O,9.2 µM
5,COc1ccc(C(=O)/C=C/C(=O)N(CC(=O)NC2CCCCC2)CC2CCCO2)c(O)c1 (stereo not drawn),4.01 µM
6,CC(C)=NOc1cc(NC(=O)CCl)cc([N+](=O)[O-])c1,6.18 µM
7,CC(C)CC(=O)/C=C/n1c(=S)oc2ccccc21,10.5 µM
8,CCN1c2ccccc2NC2N=C(OC)C(c3ccccc3)C21 (stereo not drawn),7.52 µM
9,O=C(CCl)N1c2ccccc2SCC1c1ccccc1 (stereo not drawn),4.2 µM
10,COCCCn1[nH]c2c3c(ccc2c1=O)C(=O)c1ccccc1C3=O,8.86 µM
11,O=C(O)c1ccc(C(=O)Nc2ccc(F)cc2)cc1,19.8 µM
12,CCC(=O)Nc1cc2nn(-c3ccc(C)cc3)nc2cc1C,4.15 µM
13,COc1ccc(/C=C2\SC(=O)N(CCCC(=O)Nc3cc(Cl)ccc3C(=O)O)C2=O)cc1,0.528 µM
14,S=C=Nc1cccc(C2(N3CCCCC3)CCCCC2)c1,7.36 µM
15,CCCCCCCNC(=O)C1(CC2CC(c3ccc(Cl)cc3)=NO2)CCNCC1 (stereo not drawn),14 µM
16,COC(=O)c1ccc(-n2c(C)cc(C(=O)CCl)c2C)cc1,7.46 µM
17,COc1cc(C(=O)N/N=C(\c2ccccc2)c2ccccn2)cc(OC)c1OC,13.8 µM
18,Cn1cc(C(=O)N/N=C/c2c(O)ccc3ccccc23)ccc1=O,2.55 µM
19,Cc1ccccc1OCC(=O)N/N=C/c1ccc([N+](=O)[O-])o1,8.22 µM
20,O=C(CNC(=O)c1cccc(F)c1)N/N=C/c1ccc([N+](=O)[O-])s1,7.45 µM

row,SMILES,AC50
1,CCC(=O)NC(c1ccccc1OC)c1ccc2cccnc2c1O (stereo not drawn),6.7 µM
2,O=C(CCl)N(c1ccccc1)c1c[nH]c2ccccc12,5.08 µM
3,CCn1c(=O)c([N+](=O)[O-])c(Cl)c2ccccc21,7.2 µM
4,Oc1c(Cl)cc(Cl)cc1/C=N/Nc1ncc(Br)cn1,7.84 µM
5,Cc1ccc(NC(=O)c2cc3ccccc3oc2=O)cc1S(=O)(=O)N(C)C,0.03 µM
6,CC(Oc1ccccc1)C(=O)Nc1nc(-c2ccccn2)cs1 (stereo not drawn),14.1 µM
7,O=[N+]([O-])c1cccc2c(N3CCCC3)ccnc12,2.47 µM
8,Cc1ccc(C2=NN(C(=O)CCl)C(c3cccs3)C2)o1 (stereo not drawn),6.1 µM
9,O=C(Cn1cc(/C=C\[N+](=O)[O-])c2ccccc21)Nc1ccccc1,7.46 µM
10,CCCN(CCC)C1=CC(=[N+]2CCCC2)CC(C)(C)C1,2.02 µM
11,c1ccc(C[n+]2cccc3c4ccccc4ccc32)cc1,3.41 µM
12,COc1cc(CNC2CCCC2)cc(Cl)c1OCc1ccccc1Cl,17.7 µM
13,Cc1ccc(C(=O)N/N=C\c2ccc([N+](=O)[O-])s2)cn1,2.95 µM
14,O=C(Nc1ccc(N2CCCC2)c(Cl)c1)c1ccc([N+](=O)[O-])o1,11.1 µM
15,CCCc1ccc(-c2ccc(/C=C/C(=O)O)cc2)nc1,0.039 µM
16,CCC(=O)N1CCN(c2ccc(NC(=O)c3ccc([N+](=O)[O-])o3)cc2)CC1,8.69 µM
17,CC(C)n1cc(/C=C/c2cc[n+](C)cc2)c2ccccc21,8.14 µM
18,O=C1C=C(N(CCO)Cc2ccccc2)c2ccccc2C1=O,4.78 µM
19,CCOC(=O)c1ccc(NC2=CC(=O)C(=O)c3ccccc32)cc1,4.3 µM
20,CS(=O)(=O)c1ncc(Cl)c(C(=O)Nc2ccc(N3CCOCC3)cc2)n1,22.8 µM

row,SMILES,AC50
1,O=C(COc1ccc(Cl)cc1Cl)Nc1ccccn1,2.19 µM
2,CC(C)(C)NC(=O)CCN(/N=C/c1ccc([N+](=O)[O-])o1)C1=NS(=O)(=O)c2ccccc21,7.18 µM
3,Cc1ccc(-c2cc(-c3ccc(C)cc3)[n+](C)o2)cc1,8.24 µM
4,O=S(=O)(c1ccc(Cl)cc1)N1CCN(Cc2ccc(O)c3ncccc23)CC1,4.37 µM
5,CCNC1=C(Cl)C(=O)c2ccccc2C1=O,3.84 µM
6,CC(C)c1ccc(/C=N/Nc2ccc(C(=O)O)cc2)cc1,3.53 µM
7,CCN(CCO)c1ccc(N=Nc2cc(C)[nH]n2)cc1,3.6 µM
8,O=C(Nc1ccc(S(=O)(=O)N2CCCCCC2)cc1)c1[nH]ncc1[N+](=O)[O-],4.02 µM
9,O=C(Nc1ccc(-c2nc3ncccc3o2)cc1)c1ccc([N+](=O)[O-])o1,3.63 µM
10,Cc1cc(C(C)(C)C)cc(C)c1Cn1c2[n+](c3ccc(C(F)(F)F)cc31)CCCCC2,7.55 µM
11,Cc1cc(C=C2C(=O)c3ccccc3C2=O)c(C)n1-c1ccccc1,3.78 µM
12,Cc1ccc(NCC(=O)N/N=C\c2ccc([N+](=O)[O-])o2)cc1,19.1 µM
13,CC(=O)Cn1ncc(Br)c(Br)c1=O,15.8 µM
14,CC1CCN(c2nc3ccc(C(=O)O)cc3s2)CC1,1.25 µM
15,O=C(/C=C/c1ccc(Cl)cc1)c1ccc([N+](=O)[O-])o1,5.32 µM
16,Cc1ccc(NC(=O)c2cc(N3C(=O)C=CC3=O)ccc2N2CCOCC2)cc1,11.6 µM
17,Cc1c(C#N)c(O)n(CCO)c(=O)c1N=Nc1ccc2c(c1)COC2=O,9.69 µM
18,COc1ccc(Oc2cc(NC(=O)c3nn(C)cc3[N+](=O)[O-])cc([N+](=O)[O-])c2)cc1,8.94 µM
